# Measurements taken from patent publication US4999042A, “Phenyl oximino-acetate fungicides” (Imperial Chemical Industries PLC, priority 1986, dated 1991).
# Read-outs that look alike come from different tables or passages of the source.
# Experiments:
# Assay type in all cases: in vivo
# [1] = system: Puccinia recondita (wheat); assay: Foliar fungal disease control, Puccinia recondita on wheat
# [2] = system: Erysiphe graminis hordei (barley); assay: Foliar fungal disease control, Erysiphe graminis hordei on barley; conditions: inoculated 24 hours before treatment
# [3] = system: Venturia inaequalis (apple); assay: Foliar fungal disease control, Venturia inaequalis on apple
# [4] = system: Pyricularia oryzae (rice)
# [5] = system: Cercospora arachidicola (peanut); assay: Foliar fungal disease control, Cercospora arachidicola on peanut
# [6] = system: Plasmopara viticola (vine); assay: Foliar fungal disease control, Plasmopara viticola on vine
# Maize (MZ) = assay: Plant growth regulating whole plant screen, maize; conditions: 4000 ppm (4 kg/ha) spray; for P = Phytotoxicity: after 2-6 weeks
# Procedure: (§1) This Example illustrates the plant growth regulating properties of compounds 1, 2, 5 and 12-15 of Table I when tested on a whole plant screen against two species of plant. The plant species are identified in Table IV with the leaf stage at which they were sprayed.
# (§2) A formulation of each chemical was applied at 4000 ppm (4 kg/ha in a 1000 1/ha field volume) using a tracksprayer and a SS8004E (Teejet) nozzle.
# (§3) After spraying, the plants were grown in a glasshouse with 25° C. day/22° C. night temperatures. Supplementary lighting was supplied when necessary to provide an average photoperiod of 16 hours (14 hours minimum).
# (§4) After 2-6 weeks in the glasshouse, depending on species and time of year, the plants were visually assessed for morphological characteristics against a control plant sprayed with a blank formulation.
# Apple (AP) = assay: Plant growth regulating whole plant screen, apple; conditions: 4000 ppm (4 kg/ha) spray, visual score after 2-6 weeks
# Procedure: as §1, §2, §3, §4
# [7] = 100 ppm foliar spray plus root drench approx. 40 ppm a.i./dry soil, 1-2 days before inoculation
# [8] = 100 ppm foliar spray plus root drench approx. 40 ppm a.i./dry soil
SMILES,"disease control grading, PUCCINIA RECONDITA (WHEAT) [1, 7]","disease control grading, ERYSIPHE GRAMINIS HORDEI (BARLEY) [2, 8]","disease control grading, VENTURIA INAEQUALIS (APPLE) [3, 7]","disease control grading, P[…] (RICE) [4, 7]","disease control grading, CERCOSPORA ARACHIDICOLA (PEANUT) [5, 7]","disease control grading, PLASMOPARA VITICOLA (VINE) [6, 7]",I = Interligular or internodal length reduction (Maize (MZ); visual score after 2-6 weeks),R = Retardation (Maize (MZ); visual score after 2-6 weeks),I = Interligular or internodal length reduction (Apple (AP)),R = Retardation (Apple (AP)),further results
"CO/N=C(\C(=O)OC)c1ccccc1Oc1ccccc1 [Compound 5, methyl O-methyl(2-phenoxyphenyl)oximino-acetate]",0 (60-100% of disease on untreated plants),3 (trace - 5% of disease on untreated plants),3 (trace - 5% of disease on untreated plants),1 (26-59% of disease on untreated plants),0 (60-100% of disease on untreated plants),0 (60-100% of disease on untreated plants),3 (61-100%),3 (61-100%),–,–,P = Phytotoxicity (Maize (MZ)): 1 (less than 10%); A = Apical damage (Maize (MZ); visual score after 2-6 weeks): 3 (61-100%)
"CON=C(C(=O)OC)c1ccccc1OC1CCCCC1 (single isomer, unassigned) [Compound 10]",–,–,–,–,–,–,–,–,–,–,"disease control grading, PUCCINIA RECONDITA (WHEAT) ([1]; 25 ppm foliar spray only): 3 (trace - 5% of disease on untreated plants); disease control grading, ERYSIPHE GRAMINIS HORDEI (BARLEY) ([2]; 25 ppm foliar spray only): 3 (trace - 5% of disease on untreated plants); disease control grading, VENTURIA INAEQUALIS (APPLE) ([3]; 25 ppm foliar spray only): 2 (6-25% of disease on untreated plants); disease control grading, P[…] (RICE) ([4]; 25 ppm foliar spray only): 3 (trace - 5% of disease on untreated plants); disease control grading, CERCOSPORA ARACHIDICOLA (PEANUT) ([5]; 25 ppm foliar spray only): 0 (60-100% of disease on untreated plants); disease control grading, PLASMOPARA VITICOLA (VINE) ([6]; 25 ppm foliar spray only): 2 (6-25% of disease on untreated plants)"
"CO/N=C(/C(=O)OC)c1ccccc1Oc1ccccc1 [Compound 6, methyl O-methyl(2-phenoxyphenyl)oximino-acetate]",4,4,4,3 (trace - 5% of disease on untreated plants),3 (trace - 5% of disease on untreated plants),4,–,–,–,–,–
"CON=C(C(=O)OC)c1ccccc1NC(=O)c1cccs1 (single isomer, unassigned) [Compound 15]",–,–,–,–,–,–,–,–,1 (10-30%),1 (10-30%),G = Greening effect (Apple (AP)): 1 (10-30%)
"CON=C(C(=O)OC)c1cccc2c1Oc1ccccc1O2 (single isomer, unassigned) [Compound 32]",4,3 (trace - 5% of disease on untreated plants),2 (6-25% of disease on untreated plants),0 (60-100% of disease on untreated plants),1 (26-59% of disease on untreated plants),4,–,–,–,–,–
"CON=C(C(=O)OC)c1ccccc1/C=C/c1ccccc1 (single isomer, unassigned) [Compound 2, methyl O-methyl (2-(E)-styrylphenyl)oximino-acetate]",2 (6-25% of disease on untreated plants),0 (60-100% of disease on untreated plants),4,0 (60-100% of disease on untreated plants),0 (60-100% of disease on untreated plants),4,2 (31-60%),2 (31-60%),1 (10-30%),2 (31-60%),A = Apical damage (Maize (MZ); visual score after 2-6 weeks): 2 (31-60%); G = Greening effect (Apple (AP)): 1 (10-30%)
"CON=C(C(=O)OC)c1cccc2c1oc1ccccc12 (single isomer, unassigned) [Compound 18]",3 (trace - 5% of disease on untreated plants),0 (60-100% of disease on untreated plants),4,1 (26-59% of disease on untreated plants),1 (26-59% of disease on untreated plants),4,–,–,–,–,–
"CON=C(C(=O)OC)c1cccc2c1oc1ccccc12 (single isomer, unassigned) [Compound 17]",3 (trace - 5% of disease on untreated plants),0 (60-100% of disease on untreated plants),1 (26-59% of disease on untreated plants),0 (60-100% of disease on untreated plants),0 (60-100% of disease on untreated plants),2 (6-25% of disease on untreated plants),–,–,–,–,–
"CON=C(C(=O)OC)c1ccccc1NC(=O)c1ccco1 (single isomer, unassigned) [Compound 14]",–,–,–,–,–,–,–,–,1 (10-30%),1 (10-30%),–
"CON=C(C(=O)OC)c1ccccc1/C=C/c1ccccc1 (single isomer, unassigned) [Compound 1, methyl O-methyl (2-(E)-styrylphenyl)oximino-acetate]",0 (60-100% of disease on untreated plants),0 (60-100% of disease on untreated plants),3 (trace - 5% of disease on untreated plants),0 (60-100% of disease on untreated plants),0 (60-100% of disease on untreated plants),4,3 (61-100%),3 (61-100%),–,–,P = Phytotoxicity (Maize (MZ)): 1 (less than 10%); A = Apical damage (Maize (MZ); visual score after 2-6 weeks): 3 (61-100%); G = Greening effect (Maize (MZ); visual score after 2-6 weeks): 2 (31-60%)
"CON=C(C(=O)OC)c1ccccc1/C=C/c1ccco1 (single isomer, unassigned) [Compound 4]",4,0 (60-100% of disease on untreated plants),4,3 (trace - 5% of disease on untreated plants),3 (trace - 5% of disease on untreated plants),4,–,–,–,–,–
"CON=C(C(=O)OC)c1ccccc1/C=C/c1ccco1 (single isomer, unassigned) [Compound 3]",0 (60-100% of disease on untreated plants),0 (60-100% of disease on untreated plants),4,0 (60-100% of disease on untreated plants),0 (60-100% of disease on untreated plants),0 (60-100% of disease on untreated plants),–,–,–,–,–
"CON=C(C(=O)OC)c1ccccc1NC(=O)c1ccco1 (single isomer, unassigned) [Compound 13]",0 (60-100% of disease on untreated plants),0 (60-100% of disease on untreated plants),–,0 (60-100% of disease on untreated plants),2 (6-25% of disease on untreated plants),0 (60-100% of disease on untreated plants),1 (10-30%),2 (31-60%),1 (10-30%),2 (31-60%),G = Greening effect (Apple (AP)): 1 (10-30%)
"CON=C(C(=O)OC)c1ccccc1Oc1ccc([N+](=O)[O-])cc1 (single isomer, unassigned) [Compound 7]",0 (60-100% of disease on untreated plants),1 (26-59% of disease on untreated plants),3 (trace - 5% of disease on untreated plants),0 (60-100% of disease on untreated plants),0 (60-100% of disease on untreated plants),3 (trace - 5% of disease on untreated plants),–,–,–,–,–
"CON=C(C(=O)OC)c1ccccc1NC(=O)c1ccccc1 (single isomer, unassigned) [Compound 12]",–,–,–,–,–,–,1 (10-30%),2 (31-60%),1 (10-30%),2 (31-60%),G = Greening effect (Apple (AP)): 1 (10-30%)
"CON=C(C(=O)OC)c1ccccc1N(C)C(=O)c1cccs1 (single isomer, unassigned) [Compound 33]",0 (60-100% of disease on untreated plants),0 (60-100% of disease on untreated plants),4,0 (60-100% of disease on untreated plants),0 (60-100% of disease on untreated plants),0 (60-100% of disease on untreated plants),–,–,–,–,–
